Laboratory results taken from US10946017B2, “Tank-binding kinase-1 PROTACs and associated methods of use” (Arvinas Operations, Inc., priority 2015, dated 2021).
Entries after “also recorded” stand apart in the source; their conditions may differ.

What was measured:
IKKε [1] = biological target: T1, IKKε (Homo sapiens (Human), UniProt Q14164); assay: IKKε binding affinity (Kd)
TBK1 [2] = biological target: T2, TBK1 (Homo sapiens (Human), UniProt Q9UHD2); assay: TBK1 binding affinity (Kd)
IKKε [3] = biological target: T1, IKKε; assay: IKKε degradation in cells; format: cell-based
[4] = biological target: Von Hippel-Lindau (VHL) E3 ligase (Homo sapiens (Human), UniProt P40337); assay: VHL binding, FP assay; conditions: affinity of the VHL ligand component with side chain R2
Sequence of Von Hippel-Lindau (VHL) E3 ligase (P40337 whole entry, looked up): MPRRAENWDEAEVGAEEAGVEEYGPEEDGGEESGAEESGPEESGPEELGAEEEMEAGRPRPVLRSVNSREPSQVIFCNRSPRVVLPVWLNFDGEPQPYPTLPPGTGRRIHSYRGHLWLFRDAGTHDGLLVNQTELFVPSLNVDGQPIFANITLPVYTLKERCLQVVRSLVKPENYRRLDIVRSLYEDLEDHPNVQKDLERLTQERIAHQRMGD
Sequence of Von Hippel-Lindau (VHL) E3 ligase (Q15370 whole entry partner, looked up): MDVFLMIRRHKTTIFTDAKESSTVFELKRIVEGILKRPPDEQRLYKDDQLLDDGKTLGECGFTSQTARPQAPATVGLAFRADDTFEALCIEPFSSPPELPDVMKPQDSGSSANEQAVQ
Sequence of Von Hippel-Lindau (VHL) E3 ligase (Q15369 whole entry partner, looked up): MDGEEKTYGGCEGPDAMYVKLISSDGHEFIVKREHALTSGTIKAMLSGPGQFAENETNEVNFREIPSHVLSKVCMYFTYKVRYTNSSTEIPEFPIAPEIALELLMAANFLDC

TBK1 [5] = biological target: T2, TBK1; assay: In vitro TBK1 degradation assay, Panc02.13 cells (compounds 3-33), immunoblot; format: cell-based
Procedure: (§1) In vitro degradation assay protocol for compounds 3-33: Panc02.13 cells were purchased from ATCC and cultured in RPMI-1640 (Gibco), supplemented with 15% FBS (ATCC) and 10 Units/mL human recombinant insulin (Gibco). PROTAC treatments were carried out in 12-well plates for 16 h. TLR3 agonist Poly I:C (Invivogen; tlr1-pic) was added for the final 3 h. Cells were harvested, and lysed in RIPA buffer (50 mM Tris pH8, 150 mM NaCl, 1% Tx-100, 0.1% SDS, 0.5% Sodium Deoxycholate) supplemented with protease and phosphatase inhibitors. Lysates were clarified at 16,000 g for 10 minutes, and supernatants were separated by SDS-PAGE. Immunoblotting was performed using standard protocols. The antibodies used were TBK1 (Cell Signaling#3504), pIRF3 (abcam#ab76493), and GAPDH (Cell Signaling#5174).

pIRF3 = assay: Inhibition of TBK1 downstream marker pIRF3 in cells; format: cell-based
Procedure: as §1

TBK1 [6] = biological target: T2, TBK1; assay: TBK1 degradation in KRAS mutant and wild type cell lines; format: cell-based; conditions: 72 hour treatment; H23, A549, H1792 (KRAS mutant), H2110 (KRAS wild type)
[7] = test system: KRAS mutant cell lines H23, A549 and H1792, and KRAS wild type cell line H2110; assay: Proliferation of KRAS mutant and wild type cell lines; format: cell-based; conditions: 72 hour treatment

T1 sequence (Q14164 whole entry): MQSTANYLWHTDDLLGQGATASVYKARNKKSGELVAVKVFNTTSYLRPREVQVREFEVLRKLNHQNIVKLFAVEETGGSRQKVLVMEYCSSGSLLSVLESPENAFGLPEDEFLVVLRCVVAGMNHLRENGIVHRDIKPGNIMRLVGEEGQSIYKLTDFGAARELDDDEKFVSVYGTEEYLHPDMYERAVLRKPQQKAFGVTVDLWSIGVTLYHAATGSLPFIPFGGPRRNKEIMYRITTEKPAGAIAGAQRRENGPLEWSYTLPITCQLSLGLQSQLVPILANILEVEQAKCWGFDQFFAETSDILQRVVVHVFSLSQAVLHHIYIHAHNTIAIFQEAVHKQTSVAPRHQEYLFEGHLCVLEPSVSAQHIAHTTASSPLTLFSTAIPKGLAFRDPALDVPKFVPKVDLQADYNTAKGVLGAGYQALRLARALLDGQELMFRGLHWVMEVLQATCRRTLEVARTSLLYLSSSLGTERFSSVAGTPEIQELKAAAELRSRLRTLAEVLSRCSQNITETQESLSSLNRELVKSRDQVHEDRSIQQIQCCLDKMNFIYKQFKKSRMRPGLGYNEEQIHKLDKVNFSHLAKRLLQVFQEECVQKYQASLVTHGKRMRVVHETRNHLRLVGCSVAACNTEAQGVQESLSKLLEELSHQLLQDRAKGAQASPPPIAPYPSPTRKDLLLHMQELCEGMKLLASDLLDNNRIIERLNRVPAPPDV
T2 sequence (Q9UHD2 whole entry): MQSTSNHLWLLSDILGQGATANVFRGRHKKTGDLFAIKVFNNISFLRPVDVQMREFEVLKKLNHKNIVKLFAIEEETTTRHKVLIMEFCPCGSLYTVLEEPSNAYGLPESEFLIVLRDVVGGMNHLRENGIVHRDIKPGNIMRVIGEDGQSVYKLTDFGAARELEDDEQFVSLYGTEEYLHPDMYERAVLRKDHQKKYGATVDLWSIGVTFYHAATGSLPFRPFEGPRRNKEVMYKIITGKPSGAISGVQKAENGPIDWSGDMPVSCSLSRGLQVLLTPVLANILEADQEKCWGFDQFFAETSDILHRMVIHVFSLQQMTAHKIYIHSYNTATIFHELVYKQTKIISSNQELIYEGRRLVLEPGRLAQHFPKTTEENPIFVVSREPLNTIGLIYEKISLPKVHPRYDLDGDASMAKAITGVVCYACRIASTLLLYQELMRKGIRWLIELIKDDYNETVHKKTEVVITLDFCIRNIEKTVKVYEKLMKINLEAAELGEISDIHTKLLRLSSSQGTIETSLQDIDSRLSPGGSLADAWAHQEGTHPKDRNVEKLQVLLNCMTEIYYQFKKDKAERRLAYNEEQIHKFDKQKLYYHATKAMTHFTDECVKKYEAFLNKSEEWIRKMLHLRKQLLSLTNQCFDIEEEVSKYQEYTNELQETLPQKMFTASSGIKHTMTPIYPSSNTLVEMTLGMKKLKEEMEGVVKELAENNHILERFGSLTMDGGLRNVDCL

Kd (IKKε [1]): 70 nM
Kd (TBK1 [2]): 4.6 ± 1.1 nM
IKKε degradation (IKKε [3]): negligible degradation
degradation selectivity TBK1 over IKKε (IKKε [3]): selectively degrades TBK1 over IKKε
IC50 [4]: 800 nM
DC50 (TBK1 [5]; TBK1 degradation, Panc02.13 cells, 16 h, mean of ≥ 2 determinations, read-out: DC50 (concentration at which 50% degradation is observed)): 12 nM
Dmax (TBK1 [5]; TBK1 degradation, Panc02.13 cells, 16 h, mean of ≥ 2 determinations, read-out: Dmax (maximal degradation observed)): 96%
TBK1 degradation with excess VHL ligand 2 added (TBK1 [5]; excess VHL ligand 2 as competitor): abrogated TBK1's degradation
TBK1 degradation in KRAS mutant and wild type cells (TBK1 [6]): near complete degradation of TBK1
SMILES: Cc1ncsc1-c1ccc(CNC(=O)[C@@H]2C[C@@H](O)CN2C(=O)[C@@H](NC(=O)COCCCOCCCCOCCCOc2ccc(Nc3ncc(Br)c(NCCCN(C)C(=O)C4CCC4)n3)cc2)C(C)(C)C)cc1 [Compound 11, (2S,4R)-1-((S)-18-(4-((5-Bromo-4-((3-(N-methylcyclobutanecarboxamido)-propyl)amino)pyrimidin-2-yl)amino)phenoxy)-2-(tert-butyl)-4-oxo-6,10,15-trioxa-3-azaoctadecan-1-oyl)-4-hydroxy-N-(4-(4-methylthiazol-5-yl)benzyl)pyrrolidine-2-carboxamide]
TBK1 degradation (in words) (TBK1 [5]; listed as PROTAC 11): Maximal efficacy; also recorded: effects degradation of TBK1
TBK1 degradation after pre-treatment with proteasome inhibitor carfilzomib (TBK1 [5]; pre-treatment with carfilzomib, listed as PROTAC 11): markedly reduced the extent of TBK1 degradation; also recorded: abrogated
intracellular TBK1 binding indicated by inhibition of pIRF3 (pIRF3): competent intracellular TBK1 binding
effect on proliferation of KRAS mutant versus wild type cells [7]: no differential effect on the proliferation
